From US20230348852A1, “METHODS AND COMPOSITIONS FOR OCULAR CELL THERAPY” (NOVARTIS AG, priority 2020, published 2023)
Entries after “also recorded” stand apart in the source; their conditions may differ.

Experiments:
[1] = tested on: human lymphoblastoid TK6 cells; experiment: In vitro TK6 micronucleus assay; format: cell-based; details: for Conclusion TK6 MNT screen result: 30+0 hour -S-9 up to limit of cytotoxicity, 3+27 hours +S-9 up to 1 mM
Procedure: An in vitro TK6 Micronucleus Assay was performed to evaluate the clastogenic and aneugenic potential of a LATS inhibitor by its effects on the frequency of micronuclei in cultured human lymphoblastoid TK6 cells treated for 30 hours with no recovery in the absence of an Aroclor-induced rat liver metabolizing system (S-9) (30+0 hour -S-9) and for 3 hours in the presence of S-9 with 27 hours of recovery (3+27 hours +S-9).
TK6 cells were cultured in HEPES-buffered RPMI 1640 medium with GlutaMAXTM-1 including 10% (v/v) heat inactivated foetal calf serum, 100 Units/mL/100 µg/mL penicillin / streptomycin. Liver S-9 mix from male rats induced with Aroclor 1254 was added as a 10% S-9 mix to achieve a final concentration of 1% in the test system. […] Standard vehicle used was DMSO.
For valid data, the test item was considered to induce clastogenic and/or aneugenic events if: • A statistically significant increase in the frequency of micronucleated mononucleate (MNMON) cells at one or more concentrations was observed • An incidence of MNMON cells at such a concentration exceeded the normal range in both replicate cultures was observed • A concentration-related increase in the proportion of MNMON cells was observed (positive trend test).
The test item was considered positive in this assay if all of the above criteria were met. The test item was considered negative in this assay if none of the above criteria were met.

[2] = tested on: Salmonella typhimurium (TA98 and TA100); experiment: Bacterial reverse mutation assay (6-well Ames screen); format: cell-based; details: TA98 and TA100, absence or presence of rat liver S-9 mix, maximum concentration 500 µg/well
Procedure: A Bacterial Reverse Mutation Assay (“Ames Test”) was performed to evaluate the mutagenic potential of a LATS inhibitor by its effects on one or more histidine-requiring strains of Salmonella typhimurium (TA98 and TA100.) in the absence and presence of a liver metabolizing system.
The 6-well plate Ames test is a miniaturized screening version of the original test using smaller volumes and test item amounts, see e.g. P.A. Escobar et al. (2013), Mut. Res. 752, 99-118. The highest concentration of 500 µg/well used in this 6-well Ames screen corresponds to about the top concentration of […] in the standard Ames test. Liver S-9 mix from male rats induced with Aroclor 1254 was added as a 5% S-9 mix to the test system. […] Standard vehicle used was DMSO.
The test article was regarded positive in this assay if this criterion is met, otherwise it was regarded as negative.

[3] = tested on: YAP; experiment: Intracellular YAP distribution by immunohistochemistry in LSCs exposed to LATS inhibitors; format: cell-based, human; details: 10 micromolar, 24 hours, compared with DMSO control
Procedure: Cells were cultured under these conditions for 24 hours at 37° C. in 5% CO2.
To measure the effect of the LATS inhibitors on the downstream target YAP, intracellular YAP distribution was analyzed by immunohistochemistry. Cell cultures were fixed with 4% PFA for 20 minutes, permeabilized and blocked in a blocking solution of 0.3% Triton X-100 (Sigma-Aldrich) and 3% donkey serum in PBS for 30 minutes. Cells were then labeled with primary antibody in the blocking solution for 12 hours at 4° C. Primary antibody used was anti-YAP from Santa Cruz Biotechnology. Samples were washed in PBS three times and donkey-raised secondary antibody Alexa Fluor 488 (Molecular Probes) at 1:500 dilution were applied for 30 minutes at room temperature. […] Fluorescence was observed using a Zeiss LSM 880 confocal microscope.

[4] = tested on: phospho-YAP (ser127); experiment: YAP phosphorylation by Western blot in LSCs exposed to LATS inhibitors; format: cell-based, human; details: 10 micromolar, 1 hour, DMSO as negative control
Procedure: The medium was then replaced by fresh limbal epithelium cell culture medium (DMEM F12 supplemented with 10% human serum and 1.3 mM calcium chloride) supplemented with LATS inhibitor compound example no. […] Cells were cultured under these conditions for 1 hour at 37° C. in 5% CO2.
To measure the effect of the LATS inhibitors on the downstream target YAP, the YAP phosphorylation levels were measured by western blot as follows. The cell pellets were obtained by trypsin dissociation and centrifugation and washed with PBS. The pellets were lysed with 30 microlitres of RIPA lysis buffer containing protease inhibitor cocktail (Life Technologies) for 30 minutes, with vortexing every 10 minutes. The cell debris were then pelleted at 4° C. for 15 minutes at 14 k rpm and the protein lysate was collected. Protein concentration was quantified using a micro BCA kit (Pierce). Fifteen micrograms of total protein was loaded in each well of 4-20% TGX gels (BioRad) and Western blotting was performed according to the manufacturer’s instructions. […] Membranes were stained with HRP-conjugated secondary antibodies, rinsed and imaged using a ChemiDoc system (Biorad) according to the manufacturer’s instructions.

[5] = tested on: human limbal stem cells; experiment: Human limbal stem cell population expansion and immunohistochemical observation of p63alpha phenotype; format: cell-based; details: for colony formation and p63alpha expression: 10 micromolar, 6 days after isolation without passaging, DMSO as negative control
Procedure: Cells were first cultured at 37° C. in 5% CO2 for 6 days after isolation without passaging (FIGS. 2A, 2B and 2C).
To evaluate the ability of the compounds to enable LSC expansion after two passages, LSCs were passaged and cultured for two weeks in the presence of compound example 3 to enable expansion (FIG. 2D). Limbal stem cells (LSCs) were passaged by treating cultures with Accutase for 10 minutes at 37° C., rinsing the cell suspension by centrifugation and plating cells in fresh LSC culture medium supplemented with LATS inhibitor compound example 3.
In order to observe that the expanded cell population expressed p63alpha, this was measured by immunohistochemistry as follows. Cell cultures were fixed with 4% PFA for 20 minutes, permeabilized and blocked in a blocking solution of 0.3% Triton X-100 (Sigma-Aldrich) and 3% donkey serum in PBS for 30 minutes. Cells were then labeled with primary antibody in the blocking solution for 12 hours at 4° C. Primary antibody used was p63alpha from Cell Signalling. Samples were washed in PBS three times and donkey-raised secondary antibody Alexa Fluor 488 (Molecular Probes) at 1:500 dilution were applied for 30 minutes at room temperature. Cells were counter-stained with a human nuclear antigen antibody (Millipore) at a 1:500 dilution in order to label all cells in the culture and confirm their human identity. […] Fluorescence was observed using a Zeiss LSM 880 confocal microscope.

[6] = tested on: human limbal stem cells; experiment: Human limbal stem cell population expansion and measurement (expansion factor, p63alpha-positive cells); format: cell-based; details: 10 micromolar in XVIVO15 medium, two passages; for Expansion factor: ratio of expanded population to seeded cells; for Percentage of p63a-positive cells: share of Sytox Orange-positive nuclei expressing p63alpha
Procedure: Cells were cultured at 37° C. in 5% CO2.
For each compound, two sets of cultures were generated. A first set of cultures was fixed in 4% PFA for 20 minutes at room temperature after cells isolated from the cornea had attached to the cell culture dish (typically 24 h after cell plating). A second set of cultures was fixed in 4% PFA for 20 minutes at room temperature after being cultured for two passages. Cells were passaged when they reached 90-100% confluence.
In order to observe that the expanded cell population expressed p63alpha, this was measured by immunohistochemistry as follows. The fixed cell cultures were permeabilized and blocked in a blocking solution of 0.3% Triton X-100 (Sigma-Aldrich) and 3% donkey serum in PBS for 30 minutes. Cells were then labeled with primary antibody in the blocking solution for 12 hours at 4° C. Primary antibody used was p63alpha from Cell Signalling. Samples were washed in PBS three times and donkey-raised secondary antibody Alexa Fluor 488 (Molecular Probes) at 1:500 dilution were applied for 30 minutes at room temperature. Cell nuclei were then labeled in a solution of 0.5 micromolar of Sytox Orange (ThermoFisher) in PBS for 5 minutes at room temperature.
To evaluate the percentage of p63alpha-positive cells, the number of cells labeled by the anti-p63alpha antibody was counted and the total number of cells was determined by counting the number of nuclei stained by Sytox Orange. The proportion of p63alpha-positive cells was then determined by calculating the percentage of Sytox-orange-positive nuclei that also expressed p63alpha.
To evaluate cell expansion ratios, nuclei were counted using a Zeiss LSM 880 confocal microscope. The expansion factor was then determined by calculating the ratio of the expanded population of cells to population of seeded cells.

[7] = +S-9, 3+27 hours, 337.0 µg/mL (approximately 1 mM)
[8] = +S-9, any concentration up to 337.0 µg/mL
[9] = -S-9, any concentration up to 40.00 µg/mL

SMILES	Conclusion TK6 MNT screen result ([1]; listed as dimethyl(3-methyl-3-{[2-(pyridin-4-yl)pyrido[3,4-d]pyrimid in-4-yl]amino}butyl)a)	Conclusion TK6 MNT screen result ([1]; listed as dimethyl(3-methyl-3-{[2-(pyridin-4-yl)pyrido[3,4-d]pyrimidin-4-yl]amino}butyl)am)	cytotoxicity [1, 7] [%]	increases in micronucleated mononucleate (MNMON) cells [1, 8]	cytotoxicity ([1]; -S-9, 30 hours, 40.00 µg/mL) [%]	increases in micronucleated mononucleate (MNMON) cells [1, 9]	AMES screen result [2]	YAP immunostaining in the nucleus of LSCs [3]	YAP phosphorylation levels in human LSCs (Western blot) [4]	YAP phosphorylation levels in human LSCs (Western blot) ([4]; listed as ex. 3)	colony formation and p63alpha expression [5]	cell population expansion and p63alpha expression after passaging ([5]; passaged and cultured for two weeks in the presence of the compound)	Expansion factor [6]	Percentage of p63a-positive cells [6] [%]	Conclusion TK6 MNT screen result [1]	YAP phosphorylation levels in human LSCs (Western blot) ([4]; listed as ex. 4)
CN(C)CCC(C)(C)Nc1nc(-c2ccncc2)nc2cnccc12 [Example 5, Dimethyl(3-methyl-3-{[2-(pyridin-4-yl)pyrido[3,4-d]pyrimidin-4-yl]amino}butyl)amine]	“negative”	did not induce micronuclei	39	No statistically significant (p≤0.05) increases	58	No statistically significant (p≤0.05) increases	did not show evidence of a mutagenic potential; also recorded: “negative”	–	–	–	–	–	–	–	–	–
CC(C)(O)CC(C)(C)Nc1nc(-c2ccncc2)nc2cnccc12 [Example 3, 2,4-dimethyl-4-{[2-(pyridin-4-yl)pyrido[3,4-d]pyrimidin-4-yl]amino}pentan-2-ol]	–	–	–	–	–	–	–	stronger in the nucleus	reduction in YAP phosphorylation levels	induce YAP dephosphorylation in LSCs within one hour	formed colonies and expressed p63alpha	enabled cell population expansion and the formation of confluent cultures expressing p63alpha	2029	92	–	–
Cc1n[nH]cc1-c1nc(NC(C)(C)CCN(C)C)c2ccncc2n1 [Example 6, N^1,N^1,3-trimethyl-N^3-(2-(3-methyl-1H-pyrazol-4-yl)pyrido[3,4-d]pyrimidin-4-yl)butane-1,3-diamine]	–	–	33	No statistically significant (p≤0.05) increases	57	No statistically significant (p≤0.05) increases	did not show evidence of a mutagenic potential; also recorded: “negative”	–	–	–	–	–	–	–	did not induce micronuclei; also recorded: “negative”	–
Cc1n[nH]cc1-c1nc(NC2(C)CC2)c2ccncc2n1 [Example 4, 2-(3-methyl-1H-pyrazol-4-yl)-N-(1-methylcyclopropyl)pyrido[3,4-d]pyrimidin-4-amine]	–	–	–	–	–	–	–	stronger in the nucleus	reduction in YAP phosphorylation levels	–	formed colonies and expressed p63alpha	–	1205	89	–	induce YAP dephosphorylation in LSCs within one hour
